According to US20260157964A1, “LIPOPHILIC STATIN COMPOSITION WITH IMPROVED SOLUBILITY AND PERMEABILITY AND USES THEREOF” (KOREA INSTITUTE OF SCIENCE AND TECHNOLOGY, priority 2021, published 2026):
In brackets after ≈: the same amount, converted by molar mass.

What was measured:
in vivo = details: SD, rat
[1] = Pharmacokinetics of OP (platinum) in rats, repeated oral dosing; assay type: in vivo, SD rats
Description: After SD rats were orally administered with various concentrations of ODSF repeatedly, the rats were divided into 5 groups (4 rats per group) to evaluate pharmacokinetic properties of OP. The rats were orally administered with a daily dose of 400 μL of OP (10) (OP dispersed in water, 10 mg/kg) or ODSF (2.5), ODSF (10), and ODSF (20) (containing 2.5 mg/kg, 10 mg/kg, and 20 mg/kg OP, respectively), for 14 days. […] Plasma concentrations of OP were measured based on the platinum concentration, after decomposition with nitric acid at 100° C., by inductively coupled plasma-mass spectroscopy (ICP-MS) at a high frequency power of 1450 W, at a coolant flow rate of 12 L/min, at an axillary flow rate of 2.3 L/min, and at a nebulizer flow rate of 0.89 L/min.
Plasma profiles of not only OP in water (10 mg/kg) [OP (10)] but also ODSF including 2.5 mg/kg, 10 mg/kg, and 20 mg/kg OP [ODSF (2.5), ODSF (10), and ODSF (20), respectively] were identified after 2-week continuous metronomic administration in comparison with a single IV bolus dose of 5 mg/kg OP [OP-IV (5)] administered on day 1 and day 14.

CT26 cells = assay: In vitro cytotoxicity in CT26 cells (CCK-8); assay type: cell-based, mouse
Description: Specifically, 5×10^3 CT26 cells were inoculated on 100 μL of DMEM and a Roswell Park Memorial Institute (RPMI) medium, respectively supplemented with 10% (v/v) FBS and 1% penicillin/streptomycin. […] DL and CD were also treated in the same volume and each of the concentrations. After 24 hours of the culturing, 10 μL of a WST-8 solution [2-2-methoxy-4-nitrophenyl)-3-(4-nitrophenyl)-5-(2,4-disulfophenyl)-2H-tetrazolium monosodium salt] was diluted with 100 μL of each medium, followed by culturing for 2 hours. Then, absorbance was measured using a microplate reader (PerkinElmer multimode plate reader) at 450 nm. Percentages of viable cells are shown by comparing the number of treated cells with that of untreated cells.

[2] = oral once a day 14 days, 10 mg/kg OP

## CCC(C)(C)C(=O)O[C@H]1C[C@@H](C)C=C2C=C[C@H](C)[C@H](CC[C@@H]3C[C@@H](O)CC(=O)O3)[C@H]21 [SIMVA in DMSO (50), simvastatin]
In vivo; plasma, po, 50 mg/kg
  half-life: 1.22 h

## CCC(C)(C)C(=O)O[C@H]1C[C@@H](C)C=C2C=C[C@H](C)[C@H](CC[C@@H]3C[C@@H](O)CC(=O)O3)[C@H]21 [SIMVA-IV (10), simvastatin]
In vivo; plasma, iv, 10 mg/kg
  half-life: 0.39 h

## O=C1[O][Pt]2([NH][C@@H]3CCCC[C@H]3[NH]2)[O]C1=O [OP, oxaliplatin]
[1]; IV, 5 mg/kg OP
  AUCinf, on day 14: 8120 ± 2470 ng·h/mL
  AUClast, on day 14: 5460 ± 1460 ng·h/mL
  Cmax, on day 14: 1060 ± 337 ng/mL
[1]; IV, 5 mg/kg OP (reference)
  Bioavailability: 100%
[1]; IV, 5 mg/kg OP on day 1 and day 14, platinum, n=4
  T1/2, on day 14: 15.8 ± 1.32 h
[1]; [2]
  AUCinf, on day 14: 1500 ± 196 ng·h/mL
  AUClast, on day 14: 775 ± 124 ng·h/mL
  Bioavailability: 7.09 ± 1.14%
  Cmax, on day 14: 53 ± 14 ng/mL
  T1/2, on day 14: 23.7 ± 0.723 h
  Tmax, on day 14: 0.833 ± 0.289 h

## CCC(C)(C)C(=O)O[C@H]1C[C@@H](C)C=C2C=C[C@H](C)[C@H](CC[C@@H]3C[C@@H](O)CC(=O)O3)[C@H]21 [SIMVA, simvastatin]
CT26 cells; Mus musculus, CT26, 24 h, read-out: IC50 (concentration of a drug required to kill 50% of cells)
  IC50: 183 µg/mL (≈ 437 µM)
In vivo; in vivo, po, 50 mg/kg
  half-life: 1.6 h
In vivo; plasma, po, 50 mg/kg
  Tmax: 1.5 h

## COC(=O)[C@H](CCCCN)NC(=O)CC[C@@H](C)[C@H]1CC[C@H]2[C@@H]3CC[C@@H]4C[C@H](O)CC[C@]4(C)[C@H]3C[C@H](O)[C@]12C [DL, N^α-deoxycholyl-I-lysyl-methylester]
CT26 cells; CT26, carrier amount matching maximum SIMVA concentration of 200 μg/mL
  Cell viability: 77.1%

## CCC(C)(C)C(=O)O[C@H]1C[C@@H](C)C=C2C=C[C@H](C)[C@H](CC[C@@H]3C[C@@H](O)CC(=O)O3)[C@H]21 [SIMVA-IP (10), simvastatin]
In vivo; plasma, ip, 10 mg/kg
  Tmax: 0.5 h
  half-life: 0.54 h
